Experimental data published in patent US20250195530A1, “POLQ INHIBITORS” (ASTRAZENECA AB, priority 2022, published 2025).

Tested on: DLD-1 BRCA2−/− cells
Test: Homologous recombination synthetic lethal inhibition of proliferation, DLD-1 BRCA2-/- (Cell Titre Glo 3D)
Assay type: cell-based
Conditions: Homo sapiens, DLD-1, proliferation, luminescence, taken as DLD-1 BRCA2-/-; read-out: POLQ PD Prolif Lumin (converted)
Procedure, shortened: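 Isogenic DLD-1 pair; BRCA2−/− seeded 3,000 cells/mL and read day 12, wt seeded 1,500 cells/mL and read day 7. 10-pt titration (top 10 μM, 3-fold), re-fed with compound day 6, 37 °C/5% CO2. CTG 3D endpoint; IC50 at 50% signal loss.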

Compound | IC50
Cn1nc(COc2ccc(-c3nc4c(OC5(C)CC5)ncnc4n3Cc3cccc(Cl)c3)c(Cl)c2)cc1C(=O)O [Example T394, 3-((3-chloro-4-(9-(3-chlorobenzyl)-6-(1-methylcyclopropoxy)-9H-purin-8-yl)phenoxy)methyl)-1-methyl-1H-pyrazole-5-carboxylic acid] | 3160 nM
Cc1ccnc(Cn2c(-c3ccc(C(=O)N4CCC[C@H]4C#N)cc3Cl)nc3c(OC4(C)CC4)ncnc32)c1 [Example T404, (S)-1-(3-chloro-4-(6-(1-methylcyclopropoxy)-9-((4-methylpyridin-2-yl)methyl)-9H-purin-8-yl)benzoyl)pyrrolidine-2-carbonitrile] | 1260 nM
Cc1ccnc(Cn2c(-c3ccc(C(=O)N4CC[C@@H](C#N)C4)cc3Cl)nc3c(OC4(C)CC4)ncnc32)c1 [Example T405, (R)-1-(3-chloro-4-(6-(1-methylcyclopropoxy)-9-((4-methylpyridin-2-yl)methyl)-9H-purin-8-yl)benzoyl)pyrrolidine-3-carbonitrile] | 1260 nM
Cc1ccnc(Cn2c(-c3ccc(C(=O)N4C[C@@H]5C[C@H]4CO5)cc3Cl)nc3c(OC4(C)CC4)ncnc32)c1 [Example T416, ((1S,4S)-2-oxa-5-azabicyclo[2.2.1]heptan-5-yl)(3-chloro-4-(6-(1-methylcyclopropoxy)-9-((4-methylpyridin-2-yl)methyl)-9H-purin-8-yl)phenyl)methanone] | 1580 nM
Cc1ccnc(Cn2c(-c3ccc(C(=O)N4CCC[C@H](F)C4)cc3Cl)nc3c(OC4(C)CC4)ncnc32)c1 [Example T418, (S)-(3-chloro-4-(6-(1-methylcyclopropoxy)-9-((4-methylpyridin-2-yl)methyl)-9H-purin-8-yl)phenyl)(3-fluoropiperidin-1-yl)methanone] | 631 nM
Cc1ccnc(Cn2c(-c3ccc(OCC(=O)N4CC[C@H](F)C4)cc3Cl)nc3c(OC4(C)CC4)ncnc32)c1 [Example T420, (S)-2-(3-chloro-4-(6-(1-methylcyclopropoxy)-9-((4-methylpyridin-2-yl)methyl)-9H-purin-8-yl)phenoxy)-1-(3-fluoropyrrolidin-1-yl)ethan-1-one] | 251 nM
Cc1ccnc(Cn2c(-c3ccc(OCC(=O)NC4CC(F)C4)cc3Cl)nc3c(OC4(C)CC4)ncnc32)c1 (stereo not shown) [Example T421, 2-(3-chloro-4-(6-(1-methylcyclopropoxy)-9-((4-methylpyridin-2-yl)methyl)-9H-purin-8-yl)phenoxy)-N-(3-fluorocyclobutyl)acetamide] | 251 nM
Cc1ccnc(Cn2c(-c3ccc(OCC(=O)N4C[C@@H](O)[C@H](F)C4)cc3Cl)nc3c(OC4(C)CC4)ncnc32)c1 [Example T423, 2-(3-chloro-4-(6-(1-methylcyclopropoxy)-9-((4-methylpyridin-2-yl)methyl)-9H-purin-8-yl)phenoxy)-1-((3R,4R)-3-fluoro-4-hydroxypyrrolidin-1-yl)ethan-1-one] | 1000 nM
Cc1ccnc(Cn2c(-c3ccc(OC4CC5(COC5)C4)cc3Cl)nc3c(OC4(C)CC4)ncnc32)c1 [Example T426, 8-(4-((2-oxaspiro[3.3]heptan-6-yl)oxy)-2-chlorophenyl)-6-(1-methylcyclopropoxy)-9-((4-methylpyridin-2-yl)methyl)-9H-purine] | 100 nM
Cc1ccnc(Cn2c(-c3ccc(OCC(=O)N(C)CCC#N)cc3Cl)nc3c(OC4(C)CC4)ncnc32)c1 [Example T430, 2-(3-chloro-4-(6-(1-methylcyclopropoxy)-9-((4-methylpyridin-2-yl)methyl)-9H-purin-8-yl)phenoxy)-N-(2-cyanoethyl)-N-methylacetamide] | 501 nM
Cc1ccnc(Cn2c(-c3ccc(OCC(=O)N4CCNC(=O)C4)cc3Cl)nc3c(OC4(C)CC4)ncnc32)c1 [Example T432, 4-(2-(3-chloro-4-(6-(1-methylcyclopropoxy)-9-((4-methylpyridin-2-yl)methyl)-9H-purin-8-yl)phenoxy)acetyl)piperazin-2-one] | > 6310 nM
CC(C)(COc1ccc(-c2nc3c(OC4(C)CC4)ncnc3n2Cc2cccc(Cl)c2)c(Cl)c1)CC(=O)O [Example T436, 4-(3-chloro-4-(9-(3-chlorobenzyl)-6-(1-methylcyclopropoxy)-9H-purin-8-yl)phenoxy)-3,3-dimethylbutanoic acid] | 200 nM
CC1(Oc2ncnc3c2nc(-c2cccc(OCCC(C)(C)C(=O)O)c2Cl)n3Cc2cccc(Cl)c2)CC1 [Example T442, 4-(2-chloro-3-(9-(3-chlorobenzyl)-6-(1-methylcyclopropoxy)-9H-purin-8-yl)phenoxy)-2,2-dimethylbutanoic acid] | 79.4 nM
Cc1ccnc(Cn2c(-c3ccc(CC(=O)N4CC[C@@H](O)C4)cc3Cl)nc3c(OC4(C)CC4)ncnc32)c1 [Example T458, (R)-2-(3-chloro-4-(6-(1-methylcyclopropoxy)-9-((4-methylpyridin-2-yl)methyl)-9H-purin-8-yl)phenyl)-1-(3-hydroxypyrrolidin-1-yl)ethan-1-one] | 631 nM
Cc1ccnc(Cn2c(-c3ccc(C(=O)N4CCC[C@@H]4CO)cc3Cl)nc3c(OC4(C)CC4)ncnc32)c1 [Example T459, (R)-(3-chloro-4-(6-(1-methylcyclopropoxy)-9-((4-methylpyridin-2-yl)methyl)-9H-purin-8-yl)phenyl)(2-(hydroxymethyl)pyrrolidin-1-yl)methanone] | 1260 nM
Cc1ccnc(Cn2c(-c3ccc(C(=O)N4CCC[C@H](O)C4)cc3Cl)nc3c(OC4(C)CC4)ncnc32)c1 [Example T461, (S)-(3-chloro-4-(6-(1-methylcyclopropoxy)-9-((4-methylpyridin-2-yl)methyl)-9H-purin-8-yl)phenyl)(3-hydroxypiperidin-1-yl)methanone] | 1260 nM
Cc1ccnc(Cn2c(-c3ccc(C(=O)N(C)CC4(O)CC4)cc3Cl)nc3c(OC4(C)CC4)ncnc32)c1 [Example T462, 3-chloro-N-((1-hydroxycyclopropyl)methyl)-N-methyl-4-(6-(1-methylcyclopropoxy)-9-((4-methylpyridin-2-yl)methyl)-9H-purin-8-yl)benzamide] | 1580 nM
Cc1ccnc(Cn2c(-c3ccc(C(=O)N4CC[C@@](C)(O)C4)cc3Cl)nc3c(OC4(C)CC4)ncnc32)c1 [Example T463, (R)-(3-chloro-4-(6-(1-methylcyclopropoxy)-9-((4-methylpyridin-2-yl)methyl)-9H-purin-8-yl)phenyl)(3-hydroxy-3-methylpyrrolidin-1-yl)methanone] | 1580 nM
Cc1ccnc(Cn2c(-c3ccc(C(=O)N4CC[C@@H](CO)C4)cc3Cl)nc3c(OC4(C)CC4)ncnc32)c1 [Example T464, (R)-(3-chloro-4-(6-(1-methylcyclopropoxy)-9-((4-methylpyridin-2-yl)methyl)-9H-purin-8-yl)phenyl)(3-(hydroxymethyl)pyrrolidin-1-yl)methanone] | 1580 nM
CO[C@H]1CCN(C(=O)c2ccc(-c3nc4c(OC5(C)CC5)ncnc4n3Cc3cc(C)ccn3)c(Cl)c2)C1 [Example T465, (S)-(3-chloro-4-(6-(1-methylcyclopropoxy)-9-((4-methylpyridin-2-yl)methyl)-9H-purin-8-yl)phenyl)(3-methoxypyrrolidin-1-yl)methanone] | 631 nM
Cc1ccnc(Cn2c(-c3ccc(C(=O)N4CCC[C@H]4CO)cc3Cl)nc3c(OC4(C)CC4)ncnc32)c1 [Example T466, (S)-(3-chloro-4-(6-(1-methylcyclopropoxy)-9-((4-methylpyridin-2-yl)methyl)-9H-purin-8-yl)phenyl)(2-(hydroxymethyl)pyrrolidin-1-yl)methanone] | 1000 nM
Cc1ccnc(Cn2c(-c3ccc(OCC(=O)N4CCCC4)cc3Cl)nc3c(OC4(C)CC4)ncnc32)c1 [Example T467, 2-(3-chloro-4-(6-(1-methylcyclopropoxy)-9-((4-methylpyridin-2-yl)methyl)-9H-purin-8-yl)phenoxy)-1-(pyrrolidin-1-yl)ethan-1-one] | 316 nM
Cc1ccnc(Cn2c(-c3ccc(OCCN4CCCC4=O)cc3Cl)nc3c(OC4(C)CC4)ncnc32)c1 [Example T469, 1-(2-(3-chloro-4-(6-(1-methylcyclopropoxy)-9-((4-methylpyridin-2-yl)methyl)-9H-purin-8-yl)phenoxy)ethyl)pyrrolidin-2-one] | 158 nM
CCC(=O)N1CC(Oc2ccc(-c3nc4c(OC5(C)CC5)ncnc4n3Cc3cc(C)ccn3)c(Cl)c2)C1 [Example T471, 1-(3-(3-chloro-4-(6-(1-methylcyclopropoxy)-9-((4-methylpyridin-2-yl)methyl)-9H-purin-8-yl)phenoxy)azetidin-1-yl)propan-1-one] | 158 nM
CC(=O)N1CC[C@@H](Oc2ccc(-c3nc4c(OC5(C)CC5)ncnc4n3Cc3cc(C)ccn3)c(Cl)c2)C1 [Example T472, (R)-1-(3-(3-chloro-4-(6-(1-methylcyclopropoxy)-9-((4-methylpyridin-2-yl)methyl)-9H-purin-8-yl)phenoxy)pyrrolidin-1-yl)ethan-1-one] | 200 nM
Cc1ccnc(Cn2c(-c3ccc(OCC(=O)N4CC[C@@H](O)C4)cc3Cl)nc3c(OC4(C)CC4)ncnc32)c1 [Example T473, (R)-2-(3-chloro-4-(6-(1-methylcyclopropoxy)-9-((4-methylpyridin-2-yl)methyl)-9H-purin-8-yl)phenoxy)-1-(3-hydroxypyrrolidin-1-yl)ethan-1-one] | 1000 nM
Cc1ccnc(Cn2c(-c3ccc(OCCN4CC[C@@H](O)C4=O)cc3Cl)nc3c(OC4(C)CC4)ncnc32)c1 [Example T474, (R)-1-(2-(3-chloro-4-(6-(1-methylcyclopropoxy)-9-((4-methylpyridin-2-yl)methyl)-9H-purin-8-yl)phenoxy)ethyl)-3-hydroxypyrrolidin-2-one] | 251 nM
Cc1ccnc(Cn2c(-c3ccc(OCC(=O)N4CCOCC4)cc3Cl)nc3c(OC4(C)CC4)ncnc32)c1 [Example T475, 2-(3-chloro-4-(6-(1-methylcyclopropoxy)-9-((4-methylpyridin-2-yl)methyl)-9H-purin-8-yl)phenoxy)-1-morpholinoethan-1-one] | 251 nM
